In patent publication US11944623B2, “Modulators of Kv3 channels to treat pain” (Autifony Therapeutics Limited, priority 2015, dated 2024):

Legend:
[1] = test system: rat model of persistent inflammatory pain; assay: Persistent inflammatory pain model (intraplantar FCA): paw withdrawal to mechanical pressure and cold (10° C.), general observations; assay type: in vivo; conditions: for rats with noticeable flaccidity: 1-6h post-dose; for behavioural changes in the rats (general observations): rat, in vivo; for rats more alert and more vocal than fellow cage-mates: 1-6 h post-dose
Description: (§1) The efficacy of Compounds 1, 2, 3 and 4 was investigated using rat models of neuropathic and/or persistent inflammatory pain.
(§2) Subjects comprised male, Wistar Hanover rats, 6 animals per group (225±2 g for Compound 1 studies and Compound 2 studies; 214±1 g for Compound 3 studies; 236±1 g for Compound 4 studies).
(§3) Vehicle (12% Captisol®; 0.5% w/v HPMC and 0.1% w/v Tween-80; 5 ml/kg via the intraperitoneal route) was prepared using autoclaved deionized water not more than one week prior to use.
(§4) The details of the studies performed are outlined in Table 1.
(§5) The control for the neuropathic pain model was lamotrigine, administered at 30 mg/kg via oral delivery. The control for the inflammatory pain model was diclofenac, administered at 30 mg/kg via oral delivery. Statistical analysis was performed using one-way ANOVA, and comparisons were performed with time-matched vehicle group using Tukey's HSD test wherein * p<0.05, ** p<0.01, *** p<0.001.
(§6) Treatment groups were randomised and blinded. Groups of 6 rats were used.
Mechanical hyperalgesia was examined in a model of persistent inflammatory pain. The hyperalgesia was induced by an intraplantar injection (25 μl) of Freund's Complete Adjuvant (FCA) into the left hind paw.
To assess the effect of the test compound, paw withdrawal thresholds or latencies were measured on both the ipsilateral (FCA-injected) and contralateral (non-injected) paws, prior to (naïve) and 24 hours following FCA injection (predose), and then at 1, 3, 6 and 24 hours after drug or vehicle administration.
(§7) Mechanical hyperalgesia was examined in a model of neuropathic pain by measuring paw withdrawal thresholds (PWT) to increasing mechanical force applied to the dorsal surface of the rat paw using an Analgesymeter (Ugo-Basile, Milan) equipped with a wedge-shaped probe (area 1.75 mm^2). Cut-off was set at 250 g and the end-point was taken as withdrawal of the hind paw. Both ipsilateral and contralateral paw withdrawal readings were taken.
(§8) Cold sensitivity was assessed using a commercially available cold-plate (Ugo Basile, Milan). The cold plate was allowed to stabilize for 5 minutes at the set temperature prior to testing. Paw withdrawal latencies (PWL) were determined with the cold-plate set at 10° C. The animals were lightly restrained and each hind paw in turn placed onto the surface of the cold-plate. The end point was taken as the withdrawal of the paw and recorded as the withdrawal latency for the ipsilateral and the contralateral paw. A maximum cut-off of 30 seconds was used for each paw.
(§9) In addition to behavioural pain readings, each rat was observed throughout the study for changes in general behaviour.
(§10) Data were expressed as withdrawal threshold (g) or withdrawal latencies (s) and percentage reversals calculated according to the following formula: […]
(§11) Statistical analysis was carried out on withdrawal threshold readings using ANOVA with repeated measures followed by Tukey's HSD test. The level for statistical significance was set as p<0.05.

[2] = test system: rat model of neuropathic pain; assay: Neuropathic pain model (partial ligation of the sciatic nerve): paw withdrawal to mechanical pressure and cold (10° C.), general observations; assay type: in vivo; conditions: for changes in contralateral paw withdrawals and latencies: just attained significance at 3 hours on mechanical
Description: as §1, §2, §3, §4, §5, §6
Neuropathic pain was induced by partial ligation of the sciatic nerve. Briefly, the rats were anaesthetised (isoflurane/O2 inhalation), the left sciatic nerve exposed at mid-thigh level through a small incision and ⅓ to ½ of the nerve thickness tightly ligated within a 7.0 silk suture. The wound was closed with surgical glue. Animals were allowed to recover and tested 12-15 days following surgery.
Withdrawal thresholds or latencies were measured on both the ipsilateral (ligated) and contralateral (non-ligated) paws, prior to (predose) and then up to 24 h following drug or vehicle administration.
Pre-dose behavioural measurements were obtained by measuring paw withdrawals 14 days following nerve ligation; before the initiation of drug treatment. Following treatment, further readings were taken at 1, 3, 6 and 24 hour after administration.
as §7, §8, §9, §10, §11

Human Nav1.7 channels = molecular target: T1, Human Nav1.7 channels (Homo sapiens, UniProt Q15858); assay: Nav1.7 QPatch assay; assay type: cell-based; conditions: 10 µM concentration (N=3)
T1 construct: expressed in transfected cells
T1 sequence (Q15858 whole entry): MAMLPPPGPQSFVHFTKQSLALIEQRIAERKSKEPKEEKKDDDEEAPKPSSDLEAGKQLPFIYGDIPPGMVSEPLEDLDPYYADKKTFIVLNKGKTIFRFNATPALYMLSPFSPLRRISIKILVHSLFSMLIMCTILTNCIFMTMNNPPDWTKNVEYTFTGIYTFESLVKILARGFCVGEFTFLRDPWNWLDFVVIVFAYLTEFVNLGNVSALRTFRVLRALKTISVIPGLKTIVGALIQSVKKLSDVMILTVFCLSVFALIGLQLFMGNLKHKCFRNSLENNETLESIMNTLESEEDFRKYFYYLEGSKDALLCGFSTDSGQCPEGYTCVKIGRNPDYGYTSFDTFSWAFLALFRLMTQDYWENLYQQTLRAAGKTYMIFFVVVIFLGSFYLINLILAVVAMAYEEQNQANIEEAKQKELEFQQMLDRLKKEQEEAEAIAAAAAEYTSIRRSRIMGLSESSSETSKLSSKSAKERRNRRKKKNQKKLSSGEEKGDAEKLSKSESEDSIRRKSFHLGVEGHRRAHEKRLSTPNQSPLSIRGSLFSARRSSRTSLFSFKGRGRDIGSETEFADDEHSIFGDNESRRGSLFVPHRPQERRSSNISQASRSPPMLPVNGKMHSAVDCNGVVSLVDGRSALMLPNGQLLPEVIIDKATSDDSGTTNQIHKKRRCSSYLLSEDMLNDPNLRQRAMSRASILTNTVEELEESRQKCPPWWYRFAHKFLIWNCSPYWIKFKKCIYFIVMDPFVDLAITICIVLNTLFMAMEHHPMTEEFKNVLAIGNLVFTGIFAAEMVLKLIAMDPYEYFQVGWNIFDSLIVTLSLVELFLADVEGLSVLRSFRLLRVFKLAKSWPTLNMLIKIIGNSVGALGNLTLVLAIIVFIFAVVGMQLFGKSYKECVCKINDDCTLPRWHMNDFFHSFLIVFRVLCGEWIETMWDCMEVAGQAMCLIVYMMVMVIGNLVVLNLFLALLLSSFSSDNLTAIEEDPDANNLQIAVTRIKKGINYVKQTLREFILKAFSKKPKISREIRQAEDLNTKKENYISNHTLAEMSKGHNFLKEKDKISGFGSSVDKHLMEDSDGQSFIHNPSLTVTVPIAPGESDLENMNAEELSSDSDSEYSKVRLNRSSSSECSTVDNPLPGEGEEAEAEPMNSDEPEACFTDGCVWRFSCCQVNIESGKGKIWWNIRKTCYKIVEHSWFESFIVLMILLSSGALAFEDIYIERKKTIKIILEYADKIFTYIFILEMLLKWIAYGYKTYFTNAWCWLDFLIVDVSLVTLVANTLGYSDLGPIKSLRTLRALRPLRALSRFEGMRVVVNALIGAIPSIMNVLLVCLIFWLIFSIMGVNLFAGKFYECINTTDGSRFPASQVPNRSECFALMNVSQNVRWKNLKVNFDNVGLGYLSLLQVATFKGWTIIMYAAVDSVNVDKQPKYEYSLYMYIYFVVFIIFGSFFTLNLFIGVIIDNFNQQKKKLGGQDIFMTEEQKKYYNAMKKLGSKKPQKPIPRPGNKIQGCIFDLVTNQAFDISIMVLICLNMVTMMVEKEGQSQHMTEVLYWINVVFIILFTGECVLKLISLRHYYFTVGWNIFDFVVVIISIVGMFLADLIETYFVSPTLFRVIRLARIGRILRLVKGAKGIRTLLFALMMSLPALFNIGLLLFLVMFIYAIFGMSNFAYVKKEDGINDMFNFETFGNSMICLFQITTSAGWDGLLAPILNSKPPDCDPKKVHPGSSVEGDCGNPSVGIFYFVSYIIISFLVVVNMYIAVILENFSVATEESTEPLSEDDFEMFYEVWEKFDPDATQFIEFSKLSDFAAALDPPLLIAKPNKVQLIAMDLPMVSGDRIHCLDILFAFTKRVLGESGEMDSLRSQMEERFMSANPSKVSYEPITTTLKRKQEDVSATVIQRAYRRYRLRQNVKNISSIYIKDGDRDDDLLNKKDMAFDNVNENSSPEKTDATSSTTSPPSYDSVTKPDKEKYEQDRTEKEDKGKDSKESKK
Description: Human Nav1.7 channels were stably expressed in a HEK293 cell line. Electrophysiological recordings were made at room temperature using an automated patch clamp platform (QPatch, Sophion Biosciences).
The QPatch assay was carried out at room temperature using the QPatch platform (Sophion). On the day of the experiment cells were cultured according to standard cell preparation for QPatch. Internal and external physiological solutions were freshly prepared prior to the assay. The standard extracellular solution contained 145 mM NaCl, 4 mM KCl, 2 mM CaCl2, 2 mM MgCl2, 10 mM HEPES and 10 mM glucose; the pH was adjusted to 7.4 with NaOH, and the osmolarity measured as 314mOsm/L. The standard intracellular solution contained 140 mM CsF, 10 mM NaCl, 5 mM CsOH, 1 mM EGTA, 10 mM HEPES; the pH was adjusted to 7.25 with CsOH, and the osmolarity measured as 293mOsm/L.
A series of 40 voltage pulses (from −120 mV to 0 mV, 2.4 ms long at 117 Hz) were applied every 60 s in control (twice), compound (five times), standard blocker (twice) and washout (twice). The % inhibition values were calculated by normalising the data relative to the 1st pulse (P1) and by calculating the ratio between the 40th pulse versus the 1st pulse (P40/1). Series resistance and quality of seals were monitored during the experiments. Sophion QPatch Assay Software 5.0 was used to analyse and plot all the graphs. 10 μM of the test compound was applied followed by 1 μM TTX (standard blocker), followed by saline (washout). Compounds were diluted in physiological solutions at the required concentration with a maximum of 0.1% of DMSO.

[3] = 10 mg/kg i.p., 3 hours post-dose
[4] = 30 mg/kg i.p., 3 hours post-dose
[5] = 60 mg/kg i.p., 1 hour post-dose
[6] = Study 1 of each compound (Table 1), 60 mg/kg i.p., 3 hours post-dose
[7] = Study 1 of each compound, 30 mg/kg i.p., 3 hours post-dose
[8] = Study 1 of each compound, 60 mg/kg i.p.
[9] = Study 2, 10 mg/kg i.p., 3 hours post-dose
[10] = Study 2, 30 mg/kg i.p., 3 hours post-dose
[11] = Study 2, 60 mg/kg i.p., 3 hours post-dose
[12] = 60 mg/kg i.p., 3 hours post-dose
[13] = Study 1, 30 mg/kg i.p., 1 hour post-dose
[14] = Study 1, 60 mg/kg i.p., 1 hour post-dose
[15] = 30 mg/kg i.p., time not stated (peak reversal at 1-3 h post-dose)

| changes in contralateral paw withdrawals and latencies ([2]; Study 2) | effect on Nav1.7-mediated currents (Human Nav1.7 channels) | changes in contralateral paw withdrawals/latencies ([1]; all doses) | behavioural changes in the rats (general observations) [1] | behavioural changes in the rats (general observations) ([2]; Study 1 of each compound) | SMILES | reversal of mechanical sensitivity [1, 3] | reversal of cold sensitivity [1, 4] | reversal of cold sensitivity [1, 5] | reversal of cold sensitivity [2, 6] | reversal of mechanical sensitivity [2, 6] | reversal of cold sensitivity [2, 7] | efficacy at 6 hours post-dose [2, 8] | reversal of cold sensitivity [2, 9] | reversal of mechanical sensitivity [2, 9] | reversal of cold sensitivity [2, 10] | reversal of mechanical sensitivity [2, 10] | reversal of cold sensitivity [2, 11] | reversal of mechanical sensitivity [2, 11] | reversal of cold sensitivity [1, 12] | reversal of mechanical sensitivity [1, 12] | further results |
| --- | --- | --- | --- | --- | --- | --- | --- | --- | --- | --- | --- | --- | --- | --- | --- | --- | --- | --- | --- | --- | --- |
| small changes | No significant effect | – | – | – | Cc1ccc(Oc2ncc(N3C(=O)NC(C)(C)C3=O)cn2)c2c1OCC21CC1 [Compound 1, 5,5-dimethyl-3-[2-(7-methylspiro[2H-benzofuran-3,1′-cyclopropane]-4-yl)oxypyrimidin-5-yl]imidazolidine-2,4-dione] | 64% | 65% | 92% | 125% | 68% | 52% | still efficacious | 39% | 31% | 68% | 73% | 76% | 81% | – | – | reversal of cold sensitivity [1, 3]: 45%; rats with noticeable flaccidity ([1]; 30 mg/kg i.p.): 2/6; reversal of mechanical sensitivity ([1]; 30 mg/kg i.p., 1 hour post-dose): 74%; animals showing the contralateral paw effect ([1]; 60 mg/kg i.p.): 3/6; changes in contralateral paw withdrawals/latencies ([1]; 60 mg/kg i.p.): Pronounced increases; rats with noticeable flaccidity ([1]; 60 mg/kg i.p.): 4/6; reversal of mechanical sensitivity [1, 5]: 92%; reversal of cold sensitivity ([1]; 60 mg/kg i.p., 6h post-dose): 45%; reversal of mechanical sensitivity ([1]; 60 mg/kg i.p., 6h post-dose): 45%; statistical activity of the lower dose ([2]; Study 1, 30 mg/kg i.p.): only statistically active against mechanical hyperalgesia; reversal of mechanical sensitivity ([2]; Study 1, 30 mg/kg i.p., 3 hours post-dose): 51%; flaccidity (general observation) ([2]; Study 1, 1 and 3 hour post-dose, both doses): slightly flaccid; rats with mild flaccidity ([2]; Study 2, 30 mg/kg i.p.): 1/6; rats with mild flaccidity ([2]; Study 2, 60 mg/kg i.p.): 2/6 |
| small changes | No significant effect | No changes | no apparent behavioural changes | no apparent behavioural changes | CC[C@@]1(C)NC(=O)N(c2cnc(Oc3ccc(C)c(OC(F)(F)F)c3)nc2)C1=O [Compound 2, (5R)-5-ethyl-5-methyl-3-[2-({4-methyl-3-[(trifluoromethyl)oxy]phenyl}oxy)-5-pyrimidinyl]-2,4-imidazolidinedione] | 46% | 58% | 96% | – | – | 55% | – | 35% | 31% | 70% | 72% | 95% | 81% | 81% | 67% | reversal of cold sensitivity [2, 13]: 42%; reversal of mechanical sensitivity [2, 13]: 53%; reversal of cold sensitivity [2, 14]: 71%; reversal of mechanical sensitivity [2, 14]: 47%; duration of efficacy ([2]; Study 1, both doses (30 and 60 mg/kg i.p.)): efficacious at 3 hours by not by 6 hours post-dose; behavioural changes in the rats (general observations) ([2]; Study 2): no apparent behavioural changes |
| – | No significant effect | no significant changes | – | no behavioural changes noted | Cc1ccc(Oc2ccc(-n3c(C)n[nH]c3=O)cn2)c2c1OCC21CC1 [Compound 3, 5-methyl-4-{6-[(7-methylspiro[1-benzofuran-3,1′-cyclopropan]-4-yl)oxy]pyridin-3-yl}-2,4-dihydro-3H-1,2,4-triazol-3-one] | – | – | – | 52% | 46% | – | activity was still evident | – | – | – | – | – | – | 51% | 67% | rats more alert and more vocal than fellow cage-mates ([1]; 30 mg/kg group): 4/6; rats more alert and more vocal than fellow cage-mates ([1]; 60 mg/kg group): 1/6; doses producing a reversal of mechanical or cold sensitivity ([1]; 10, 30 and 60 mg/kg i.p. tested): Only the top dose; reversal at 1 hour post-dose ([1]; 1 hour post-dose): little reversal evident; activity at 6 hours post-dose [1]: activity still evident; statistical significance against mechanical and cold hyperalgesia ([2]; Compound 3 neuropathic study, 60 mg/kg i.p.): attained statistical significance; changes in contralateral paw withdrawals/latencies ([2]; Compound 3 neuropathic study, 30 and 60 mg/kg i.p.): no significant changes |
| – | – | no significant changes | no behavioural changes noted | – | CC[C@H]1NC(=O)N(c2ccc(Oc3ccc(C)c4c3C3(CC3)CO4)nc2)C1=O [Compound 4, (5R)-5-ethyl-3-[6-(7-methylspiro[2H-benzofuran-3,1′-cyclopropane]-4-yl)oxy-3-pyridyl]imidazolidine-2,4-dione] | – | – | – | – | – | – | – | – | – | – | – | – | – | – | – | reversal of cold sensitivity [1, 15]: 55%; reversal of mechanical sensitivity [1, 15]: 50%; activity at 6 hours post-dose [1]: significant activity still evident |
